From US11192863B2, “Antiviral compounds and methods” (Biotron Limited, priority 2003, dated 2021) come the findings set out here.

Structures can show the parent of a compound that is named as a salt. Where two headings read alike, the source gives them in different places.

In one data set the test system is MHV (strain MHV-A59). Particulars: L929 cells.
The next data set has as its target Vpu protein (Human immunodeficiency virus type 1 group M subtype B, UniProt P05919). Conditions: halo of growth score between zero and six; XL1-blue E. coli with pPL-Vpu, no adenine, 37° C.
A further data set relates to human coronavirus OC43. The data set is described as follows: microbe, parasite or virus in culture. The data set is classed as cell-based. Conditions: Betacoronavirus 1, OC43, MRC5, 120 h, MRC-5 cells, 5 days post infection.
The target in a further data set is SARS-CoV E protein (Severe acute respiratory syndrome coronavirus, UniProt P59637). The data set is classed as cell-based.
Another data set concerns the target 229E-CoV E-protein (Human coronavirus 229E, UniProt P19741). The data set is described as follows: Bacterial bio-assay for 229E-CoV E-protein. Particulars: halo of growth score; E. coli expressing E protein at 37° C.

As to `N=C(N)NC(=O)/C=C/c1ccc(Cl)cc1Cl` [2,4-dichlorocinnamolyguanidine], the “Percent reduction in Plaque number/# experiments” value (“Percent reduction” for short) was 43/1% in the data set on MHV (strain MHV-A59) (1 uM), 73/1% in the data set with MHV (strain MHV-A59) (10 uM) and 76/1% in the data set with MHV (strain MHV-A59) (20 uM). For the same compound, the “Vpu Inhibition (score/# of times tested)” value at Vpu protein is on record as 0.63/2 score. Besides, 2.5 µM produced 36% inhibition in the data set on human coronavirus OC43. Besides, the “SARS E protein Inhibition (score/# of times tested)” value (“SARS E protein Inhibition” below) at SARS-CoV E protein was 0.63/2 score.
Take `N=C(N)NC(=O)/C=C/c1cccc(OC(F)(F)F)c1` [3-(trifluoromethoxy)cinnamoylguanidine]: the results for the “Percent reduction” value in the data set on MHV (strain MHV-A59) (1 uM), in the data set on MHV (strain MHV-A59) (10 uM) and in the data set on MHV (strain MHV-A59) (20 uM) were 41/2%, 90/3% and 100/1%, respectively. Moreover, the “Vpu Inhibition (score/# of times tested)” value on Vpu protein is recorded as 2.44/2 score. Besides, at 2.5 µM the inhibition in the data set on human coronavirus OC43 was 4%. The “SARS E protein Inhibition” value on SARS-CoV E protein is listed as 2.71/1 score. Besides, on 229E-CoV E-protein, the “229E E protein Inhibition (score)” value was found to be 4.1 score.
For `COc1ccc(Br)cc1/C=C/C(=O)NC(=N)N` [5-bromo-2-methoxycinnamoylguanidine], the figures for the “Percent reduction” value with MHV (strain MHV-A59) (1 uM) and in the data set with MHV (strain MHV-A59) (10 uM) were 66/1% and 100/1%, respectively. On Vpu protein, the “Vpu Inhibition (score/# of times tested)” value is on record as 1.9/2 score. Further, testing at 2.5 µM with human coronavirus OC43 gave an inhibition of 24%. For the same compound, the “229E E protein Inhibition (score)” value on 229E-CoV E-protein is given as 3.6 score.
`NC(N)=NC(=O)/C=C/c1ccc(Cl)cc1` [(4-Chlorocinnamoyl)guanidine]: the “Percent reduction” value in the data set with MHV (strain MHV-A59) (1 uM) is 43/3%; with MHV (strain MHV-A59) (10 uM) it was 88/2%; with MHV (strain MHV-A59) (20 uM), 97/2%. Besides, the “Vpu Inhibition (score/# of times tested)” value on Vpu protein is reported as 2.7/5 score. At 2.5 µM the inhibition in the data set with human coronavirus OC43 was 36%. At SARS-CoV E protein, the “SARS E protein Inhibition” value was 1.94/2 score. The “229E E protein Inhibition (score)” value at 229E-CoV E-protein is listed as 1.4 score.
For the compound `N=C(N)NC(=O)/C=C/c1ccc(Cl)c(Cl)c1` [3,4-dichlorocinnamoylguanidine], the “Percent reduction” value is reported as 50/2% with MHV (strain MHV-A59) (1 uM), 96/1% in the data set with MHV (strain MHV-A59) (10 uM) and 91/2% in the data set on MHV (strain MHV-A59) (20 uM). The “Vpu Inhibition (score/# of times tested)” value at Vpu protein is 2.9/3 score. For the same compound, in the data set with human coronavirus OC43, 2.5 µM produced 90% inhibition. Besides, at SARS-CoV E protein, the “SARS E protein Inhibition” value is given as 4.15/2 score. Besides, on 229E-CoV E-protein, the “229E E protein Inhibition (score)” value is recorded as 4.4 score.
`N=C(N)NC(=O)/C=C/c1c(Cl)cccc1Cl` [2,6-dichlorocinnamoylguanidine]: the entries for the “Percent reduction” value in the data set on MHV (strain MHV-A59) (1 uM), in the data set on MHV (strain MHV-A59) (10 uM) and with MHV (strain MHV-A59) (20 uM) were 40/1%, 70/1% and 91/1%, respectively. The “Vpu Inhibition (score/# of times tested)” value at Vpu protein was 2.88/2 score. Moreover, 2.5 µM produced 27% inhibition in the data set on human coronavirus OC43. Moreover, the “SARS E protein Inhibition” value at SARS-CoV E protein was 2.25/1 score. Further, the “229E E protein Inhibition (score)” value at 229E-CoV E-protein is 1.0 score.
Regarding `NC(N)=NC(=O)c1ccc2ccccc2c1` [2-napthoylguanidine], the results for the “Percent reduction” value with MHV (strain MHV-A59) (1 uM), in the data set with MHV (strain MHV-A59) (10 uM) and in the data set with MHV (strain MHV-A59) (20 uM) were 34/2%, 36/2% and 67/2%, respectively. For the same compound, at Vpu protein, the “Vpu Inhibition (score/# of times tested)” value is on record as 2.7/11 score. Also, on SARS-CoV E protein, the “SARS E protein Inhibition” value is 1.38/2 score. The “229E E protein Inhibition (score)” value on 229E-CoV E-protein was 0.3 score.
Consider `N=C(N)NC(=O)/C=C/c1cccc(Cl)c1` [(3-Chlorocinnamoyl)guanidine], for which the “Percent reduction” value was 39/2% with MHV (strain MHV-A59) (1 uM), 86/2% in the data set with MHV (strain MHV-A59) (10 uM) and 94/1% in the data set on MHV (strain MHV-A59) (20 uM). The “Vpu Inhibition (score/# of times tested)” value at Vpu protein is on record as 4.38/4 score. The “SARS E protein Inhibition” value at SARS-CoV E protein is recorded as 3.87/3 score. The “229E E protein Inhibition (score)” value on 229E-CoV E-protein is 0.8 score.
Consider `CCOc1ccc(/C=C/C(=O)NC(=N)N)cc1` [4-ethoxycinnamoylguanidine], for which the “Percent reduction” value is recorded as 40/1% in the data set with MHV (strain MHV-A59) (1 uM), 92/1% with MHV (strain MHV-A59) (10 uM) and 96/1% in the data set with MHV (strain MHV-A59) (20 uM). The “Vpu Inhibition (score/# of times tested)” value on Vpu protein is given as 0.69/2 score. In addition, at SARS-CoV E protein, the “SARS E protein Inhibition” value is recorded as 2.48/2 score. For the same compound, the “229E E protein Inhibition (score)” value at 229E-CoV E-protein was determined as 0.1 score.
For `CC(C)(C)Nc1nc(N)c(C(=O)N=C(N)N)nc1Cl` [5-tert-butylamino-amiloride], the figures for the “Percent reduction” value in the data set with MHV (strain MHV-A59) (1 uM), with MHV (strain MHV-A59) (10 uM) and in the data set with MHV (strain MHV-A59) (20 uM) were 34/4%, 84/4% and 89/4%, respectively. Further, on Vpu protein, the “Vpu Inhibition (score/# of times tested)” value is given as 0.2/7 score. In addition, on SARS-CoV E protein, the “SARS E protein Inhibition” value is 2.01/2 score. At 229E-CoV E-protein, the “229E E protein Inhibition (score)” value turned out to be 0.3 score.
Consider `N=C(N)NC(=O)/C=C/c1cccc(-c2ccccc2)c1` [3-phenylcinnamoylguanidine], for which the “Percent reduction” value is reported as 64/3% with MHV (strain MHV-A59) (1 uM) and 86/2% in the data set on MHV (strain MHV-A59) (10 uM). The “Toxic (noted in place of plaque reduction)” value in the data set with MHV (strain MHV-A59) (20 uM) is listed as “Toxic”. Further, at Vpu protein, the “Vpu Inhibition (score/# of times tested)” value is reported as 2.54/3 score. For the same compound, the “SARS E protein Inhibition” value at SARS-CoV E protein is on record as 3.13/1 score. In addition, the “229E E protein Inhibition (score)” value at 229E-CoV E-protein was found to be 2.9 score.
Consider `Cl.N=C(N)NC(=O)/C=C/c1ccccc1` [cinnamoylguanidine hydrochloride], for which the “Percent reduction” value is given as 56/1% with MHV (strain MHV-A59) (1 uM), 72/2% in the data set with MHV (strain MHV-A59) (10 uM) and 85/1% in the data set with MHV (strain MHV-A59) (20 uM). Besides, the “Vpu Inhibition (score/# of times tested)” value on Vpu protein is recorded as 0.6/2 score. The “SARS E protein Inhibition” value at SARS-CoV E protein was 2.50/1 score. The “229E E protein Inhibition (score)” value at 229E-CoV E-protein is 0.5 score.
`COc1ccc(/C=C/C(=O)NC(=N)N)cc1` [(4-Methoxycinnamoyl)guanidine]: the entries for the “Percent reduction” value in the data set with MHV (strain MHV-A59) (1 uM), with MHV (strain MHV-A59) (10 uM) and with MHV (strain MHV-A59) (20 uM) were 51/3%, 96/4% and 98/4%, respectively. The “Vpu Inhibition (score/# of times tested)” value at Vpu protein is 2.13/3 score. Also, the “SARS E protein Inhibition” value on SARS-CoV E protein is reported as 0.88/2 score. In addition, the “229E E protein Inhibition (score)” value on 229E-CoV E-protein is 0.1 score.
Turning to `CCc1ccccc1/C=C/C(=O)NC(=N)N` [2-ethylcinnamoylguanidine], the entries for the “Percent reduction” value in the data set with MHV (strain MHV-A59) (1 uM), with MHV (strain MHV-A59) (10 uM) and in the data set on MHV (strain MHV-A59) (20 uM) were 34/1%, 81/2% and 96/1%, respectively. In addition, the “Vpu Inhibition (score/# of times tested)” value at Vpu protein is on record as 2.75/2 score. For the same compound, on SARS-CoV E protein, the “SARS E protein Inhibition” value was 1.50/1 score. Moreover, the “229E E protein Inhibition (score)” value at 229E-CoV E-protein was found to be 0.8 score.
With `CN(C)c1nc(N)c(C(=O)N=C(N)N)nc1Cl` [5-(N,N-Dimethyl)amiloride hydrochloride], the results for the “Percent reduction” value in the data set on MHV (strain MHV-A59) (1 uM), with MHV (strain MHV-A59) (10 uM) and in the data set with MHV (strain MHV-A59) (20 uM) were 17/4%, 7/4% and 42/4%, respectively. In addition, the “Vpu Inhibition (score/# of times tested)” value at Vpu protein is given as 0.1/2 score. Further, the “SARS E protein Inhibition” value on SARS-CoV E protein is 1.38/2 score. Further, the “229E E protein Inhibition (score)” value at 229E-CoV E-protein is reported as 1.3 score.
Regarding `CC(C)c1ccc(/C=C/C(=O)NC(=N)N)cc1` [4-isopropylcinnamoylguanidine], the results for the “Percent reduction” value with MHV (strain MHV-A59) (1 uM), in the data set on MHV (strain MHV-A59) (10 uM) and in the data set with MHV (strain MHV-A59) (20 uM) were 41/3%, 93/3% and 95/3%, respectively. For the same compound, the “Vpu Inhibition (score/# of times tested)” value at Vpu protein is recorded as 1.4/2 score. Moreover, the inhibition (as a rule, how much of the control response was suppressed) at 2.5 µM with human coronavirus OC43 was found to be 68%. The “SARS E protein Inhibition” value on SARS-CoV E protein is given as 3.16/2 score. In addition, on 229E-CoV E-protein, the “229E E protein Inhibition (score)” value stood at 4.9 score.
Turning to `N=C(N)NC(=O)/C=C/C=C/c1cccc(Br)c1` [5-(3′-bromophenyl)penta-2,4-dienoylguanidine], the “Percent reduction” value with MHV (strain MHV-A59) (1 uM) is given as 66/1%; with MHV (strain MHV-A59) (10 uM), 99/2%. The “Vpu Inhibition (score/# of times tested)” value on Vpu protein was 2.5/2 score. Further, at SARS-CoV E protein, the “SARS E protein Inhibition” value is 0.5/1 score. For the same compound, at 229E-CoV E-protein, the “229E E protein Inhibition (score)” value is 0.3 score.
Regarding `N=C(N)NC(=O)/C=C/c1ccccc1C1CCCCC1` [2-cyclohexylcinnamoylguanidine], the “Percent reduction” value with MHV (strain MHV-A59) (1 uM) was 16/1%; in the data set with MHV (strain MHV-A59) (10 uM), 74/2%; in the data set with MHV (strain MHV-A59) (20 uM), 100/1%. At Vpu protein, the “Vpu Inhibition (score/# of times tested)” value is 0.8/2 score. Moreover, the “SARS E protein Inhibition” value on SARS-CoV E protein is given as 1.83/1 score. For the same compound, at 229E-CoV E-protein, the “229E E protein Inhibition (score)” value worked out at 0.8 score.
Turning to `NC(N)=NC(=O)/C=C/c1ccc(Br)cc1` [(4-Bromocinnamoyl)guanidine], the “Percent reduction” value with MHV (strain MHV-A59) (1 uM) was 52/3%; with MHV (strain MHV-A59) (10 uM) it was 98/3%. Moreover, the “Toxic (noted in place of plaque reduction)” value in the data set on MHV (strain MHV-A59) (20 uM) is listed as “Toxic/2”. The “Vpu Inhibition (score/# of times tested)” value at Vpu protein is reported as 2.5/4 score. In the data set with human coronavirus OC43, this compound displayed an inhibition at 2.5 µM of 29%. Also, at SARS-CoV E protein, the “SARS E protein Inhibition” value is on record as 1.69/2 score. Further, the “229E E protein Inhibition (score)” value on 229E-CoV E-protein came to 2.0 score.
